From PubChem BioAssay AID588647 (Sanford-Burnham Center for Chemical Genomics, 2011)
Where “and” joins values, the source holds several entries; their conditions need not be identical. Identical values can stand only once. Calls of active or inactive are those of the source. How the calls were made is not given here.

The compounds below were run against intestinal alkaline phosphatase (Mus musculus) (assay: mouse IAP inhibition by analogs – biochemical, luminescence, set 2, SAR follow-up (AID 588647)). Conditions: purified mouse IAP, luminescent substrate read-out.

| Structure (SMILES) | IC50 |
| --- | --- |
| Cc1ccc(C)c(NC(=O)C2CCCN(S(=O)(=O)c3ccc4c(c3)oc(=O)n4C)C2)c1 (configuration not stated) | > 100 µM (inactive) |
| O=C(CNS(=O)(=O)c1ccc2[nH]c(=O)oc2c1)NCCc1ccc2c(c1)OCO2 | > 100 µM (inactive) |
| O=C(CCNS(=O)(=O)c1ccc2[nH]c(=O)oc2c1)NCc1cccc(F)c1 | > 100 µM (inactive) |
| O=C(N/N=C/c1ccc(Br)cc1F)c1cc(O)ccc1O | > 100 µM (inactive) |
| COc1ccc(CNC(=O)CCNS(=O)(=O)c2ccc3ccccc3c2)c(OC)c1 | > 100 µM (inactive) |
| COc1ccc(CNC(=O)CNS(=O)(=O)c2ccc3[nH]c(=O)oc3c2)cc1 | 0.89 µM and 2.1 µM and 2.5 µM |
| Cc1ccc(C)c(NC(=O)CNS(=O)(=O)c2ccc3[nH]c(=O)oc3c2)c1 | 0.93 µM and 0.54 µM |
| Cc1ccc(C)c(NC(=O)CCNS(=O)(=O)c2ccc3[nH]c(=O)oc3c2)c1 | 0.4 µM |
| O=C(CCS(=O)(=O)Nc1ccc2[nH]c(=O)oc2c1)NCc1cccc(Cl)c1 | 67 µM |
| O=C(N/N=C/c1ccccc1F)c1ccc(O)cc1O | > 100 µM (inactive) |
| COc1ccc(/C=N/NC(=O)c2cc(O)c(O)c(O)c2)c(OC)c1 | 8.41 µM |
| O=C(N/N=C/c1ccccc1Cl)c1cc(O)c(O)c(O)c1 | 7.49 µM |
| O=C(CCS(=O)(=O)Nc1ccc2[nH]c(=O)oc2c1)NCc1cccc(F)c1 | 66 µM |
| O=C(CCNS(=O)(=O)c1ccc2[nH]c(=O)oc2c1)Nc1ccc2c(c1)OCO2 | 12 µM |
| O=C(N/N=C/c1c(F)cccc1Cl)c1ccc(O)cc1 | > 100 µM (inactive) |
| COc1cccc(NC(=O)CCNS(=O)(=O)c2ccc3c(c2)oc(=O)n3C)c1 | > 100 µM (inactive) |
| COc1ccccc1CNC(=O)CCNS(=O)(=O)c1ccc2[nH]c(=O)oc2c1 | > 100 µM (inactive) |
| COc1ccc(CNS(=O)(=O)c2ccc3[nH]c(=O)oc3c2)cc1 | 98 µM |
| CSc1cccc(NC(=O)C2CCCN(S(=O)(=O)c3ccc4c(c3)oc(=O)n4C)C2)c1 (configuration not stated) | > 100 µM (inactive) |
| O=C(N/N=C/c1c(F)cccc1Cl)c1ccc(O)cc1O | > 100 µM (inactive) |
| COc1ccc(OC)c(NC(=O)CCNS(=O)(=O)c2ccc3c(c2)oc(=O)n3C)c1 | > 100 µM (inactive) |
| COc1ccc(CNC(=O)C2CCCN(S(=O)(=O)c3ccc4[nH]c(=O)oc4c3)C2)cc1 (configuration not stated) | > 100 µM (inactive) |
| Cc1cc(NC(=O)CCNS(=O)(=O)c2ccc3[nH]c(=O)oc3c2)ccc1Br | 94 µM |
| Cc1ccccc1CNC(=O)C1CCCN(S(=O)(=O)c2ccc3[nH]c(=O)oc3c2)C1 (configuration not stated) | > 100 µM (inactive) |
| O=C(CCNS(=O)(=O)c1ccc2[nH]c(=O)oc2c1)NCc1ccc(F)cc1 | > 100 µM (inactive) |

| Structure (SMILES) | IC50 |
| --- | --- |
| Cc1ccc(C)c(NS(=O)(=O)c2ccc3[nH]c(=O)oc3c2)c1 | > 100 µM (inactive) |
| Cc1ccc(C)c(NC(=O)CCNS(=O)(=O)c2ccc3ccccc3c2)c1 | 78 µM |
| CC(C)c1ccc(NC(=O)C2CCCN(S(=O)(=O)c3ccc4c(c3)oc(=O)n4C)C2)cc1 (configuration not stated) | > 100 µM (inactive) |
| O=C(N/N=C/c1c(F)cccc1F)c1ccc(O)cc1 | > 100 µM (inactive) |
| CCc1ccc(NC(=O)C2CCCN(S(=O)(=O)c3ccc4c(c3)oc(=O)n4C)C2)cc1 (configuration not stated) | > 100 µM (inactive) |
| O=C(CCNS(=O)(=O)c1ccc2ccccc2c1)NCCc1ccc2c(c1)OCO2 | > 100 µM (inactive) |
| O=C(N/N=C/c1ccccc1C(F)(F)F)c1cc(O)c(O)c(O)c1 | 8.46 µM |
| COc1ccc(CCNC(=O)CCCNS(=O)(=O)c2ccc3[nH]c(=O)oc3c2)cc1 | 7.4 µM |
| COc1ccc(/C=N\NC(=O)c2cc(O)c(O)c(O)c2)cc1CN1CCN(c2ccc(F)cc2)CC1 | 27.9 µM |
| COc1ccccc1CNC(=O)CCCNS(=O)(=O)c1ccc2[nH]c(=O)oc2c1 | 2 µM and 5.4 µM |
| COc1cccc(CNS(=O)(=O)c2ccc3[nH]c(=O)oc3c2)c1 | 40 µM |
| O=C(CCCNS(=O)(=O)c1ccc2[nH]c(=O)oc2c1)NCCc1ccc(O)cc1 | 4.2 µM |
| COc1ccc(NC(=O)CCNS(=O)(=O)c2ccc3ccccc3c2)cc1OC | > 100 µM (inactive) |
| O=C(CCNS(=O)(=O)c1ccc2[nH]c(=O)oc2c1)NCc1ccc(C(F)(F)F)cc1 | > 100 µM (inactive) |
| Cc1ccc(NC(=O)CCNS(=O)(=O)c2ccc3[nH]c(=O)oc3c2)cc1C | 84 µM |
| COc1ccc(CNC(=O)CCCNS(=O)(=O)c2ccc3[nH]c(=O)oc3c2)cc1OC | 78 µM |
| Cc1ccc(NC(=O)CCNS(=O)(=O)c2ccc3c(c2)oc(=O)n3C)c(C)c1 | > 100 µM (inactive) |
| COc1ccc(CCNC(=O)CCCNS(=O)(=O)c2ccc3[nH]c(=O)oc3c2)cc1OC | 1.5 µM |
| O=C(CCNS(=O)(=O)c1ccc2[nH]c(=O)oc2c1)NCc1ccccc1F | > 100 µM (inactive) |
| N#Cc1ccc(NS(=O)(=O)c2ccc3[nH]c(=O)oc3c2)cc1 | > 100 µM (inactive) |
| COc1ccc(NC(=O)CCCNS(=O)(=O)c2ccc3[nH]c(=O)oc3c2)cc1OC | 1.5 µM |
| CN(C)c1ccc(CNC(=O)C2CCCN(S(=O)(=O)c3ccc4[nH]c(=O)oc4c3)C2)cc1 (configuration not stated) | > 100 µM (inactive) |
| COc1ccc(CNS(=O)(=O)c2ccc3[nH]c(=O)oc3c2)c(OC)c1 | 89 µM |
| COc1cccc(/C=N/NC(=O)c2cc(O)c(O)c(O)c2)c1O | 4.01 µM |
| O=C(CCCNS(=O)(=O)c1ccc2[nH]c(=O)oc2c1)NCc1cccc(F)c1 | 2.8 µM and 13 µM |

| Structure (SMILES) | IC50 |
| --- | --- |
| O=C(CCNS(=O)(=O)c1ccc2c(c1)CCC2)NCCc1ccc2c(c1)OCO2 | > 100 µM (inactive) |
| COc1cc(/C=N/NC(=O)c2cc(O)c(O)c(O)c2)ccc1O | 3.87 µM |
| COc1ccc(CNC(=O)CCNS(=O)(=O)c2ccc3c(c2)CCC3)c(OC)c1 | > 100 µM (inactive) |
| O=c1[nH]c2ccc(S(=O)(=O)Nc3ccc4c(c3)OCO4)cc2o1 | > 100 µM (inactive) |
| N#Cc1cccc(NC(=O)CNS(=O)(=O)c2ccc3[nH]c(=O)oc3c2)c1 | 1.4 µM and > 100 µM (inactive) |
| Cc1ccc(NC(=O)CCNS(=O)(=O)c2ccc3c(c2)oc(=O)n3C)cc1C | > 100 µM (inactive) |
| O=C(N/N=C/c1ccc(F)cc1F)c1ccc(O)cc1 | > 100 µM (inactive) |
| COc1ccc(C(=O)N/N=C/c2ccccc2F)cc1 | > 100 µM (inactive) |
| Cc1ccc(CNC(=O)CCNS(=O)(=O)c2ccc3[nH]c(=O)oc3c2)cc1 | 89 µM |
| O=C(N/N=C/c1ccc(F)c(Br)c1)c1cc(O)c(O)c(O)c1 | 8.37 µM |
| COc1ccc(NS(=O)(=O)c2ccc3[nH]c(=O)oc3c2)cc1OC | > 100 µM (inactive) |
| O=C(N/N=C/c1c(F)cccc1Cl)c1cc(O)c(O)c(O)c1 | 8.02 µM |
| COc1ccc(CNC(=O)CCNS(=O)(=O)c2ccc3[nH]c(=O)oc3c2)cc1 | 3 µM and 2.3 µM |
| O=c1[nH]c2ccc(S(=O)(=O)NCc3ccc4c(c3)OCO4)cc2o1 | > 100 µM (inactive) |
| O=C(N/N=C/c1ccccc1F)c1ccc(O)cc1 | > 100 µM (inactive) |
| O=C(CCNS(=O)(=O)c1ccc2[nH]c(=O)oc2c1)NCc1ccc(Cl)cc1 | 88 µM |
| COc1ccc(CNC(=O)CNS(=O)(=O)c2ccc3[nH]c(=O)oc3c2)c(OC)c1 | > 100 µM (inactive) |
| COc1ccc(NC(=O)CCNS(=O)(=O)c2ccc3[nH]c(=O)oc3c2)cc1OC | 0.53 µM and 0.54 µM |
| CCOc1cc(C(=O)N/N=C/c2c(F)cccc2Cl)cc(OCC)c1OCC | > 100 µM (inactive) |
| N#Cc1cccc(CNC(=O)CCNS(=O)(=O)c2ccc3[nH]c(=O)oc3c2)c1 | 2 µM |
| CSc1cccc(NC(=O)CCNS(=O)(=O)c2ccc3c(c2)oc(=O)n3C)c1 | > 100 µM (inactive) |
| COc1cccc(CNC(=O)CCNS(=O)(=O)c2ccc3[nH]c(=O)oc3c2)c1 | 0.82 µM and 34 µM and > 100 µM (inactive) |
| O=C(N/N=C/c1cc(Br)ccc1F)c1ccc(O)cc1 | > 100 µM (inactive) |
| O=C(NCc1ccccc1)C1CCCN(S(=O)(=O)c2ccc3[nH]c(=O)oc3c2)C1 (configuration not stated) | > 100 µM (inactive) |
| CC(C)c1ccc(/C=N/NC(=O)c2cc(O)c(O)c(O)c2)cc1 | 57.5 µM |

| Structure (SMILES) | IC50 |
| --- | --- |
| COc1ccc(NC(=O)CCCNS(=O)(=O)c2ccc3[nH]c(=O)oc3c2)c(OC)c1 | 6.3 µM |
| Cc1ccc(NC(=O)CCNS(=O)(=O)c2ccc3c(c2)oc(=O)n3C)cc1 | 99 µM |
| O=C(CCCNS(=O)(=O)c1ccc2[nH]c(=O)oc2c1)NCc1ccc2c(c1)OCO2 | 45 µM |
| Cc1ccc(C)c(CNC(=O)C2CCCN(S(=O)(=O)c3ccc4[nH]c(=O)oc4c3)C2)c1 (configuration not stated) | > 100 µM (inactive) |
| CC(C)Oc1ccc(CNC(=O)C2CCCN(S(=O)(=O)c3ccc4[nH]c(=O)oc4c3)C2)cc1 (configuration not stated) | > 100 µM (inactive) |
| COc1cccc(C(=O)N/N=C/c2ccccc2F)c1 | > 100 µM (inactive) |
| O=C(NCc1ccc(F)cc1)C1CCCN(S(=O)(=O)c2ccc3[nH]c(=O)oc3c2)C1 (configuration not stated) | > 100 µM (inactive) |
| O=C(CCNS(=O)(=O)c1ccc2[nH]c(=O)oc2c1)NCc1ccc(O)c(O)c1 | 7.7 µM |
| CC(C)(C)c1ccc(/C=N/NC(=O)c2cc(O)c(O)c(O)c2)cc1 | > 100 µM (inactive) |
| COc1ccc(OC)c(NC(=O)C2CCCN(S(=O)(=O)c3ccc4c(c3)oc(=O)n4C)C2)c1 (configuration not stated) | > 100 µM (inactive) |
| Cc1ccc(CNC(=O)C2CCCN(S(=O)(=O)c3ccc4[nH]c(=O)oc4c3)C2)cc1 (configuration not stated) | > 100 µM (inactive) |
| O=C(CCNS(=O)(=O)c1ccc2[nH]c(=O)oc2c1)NCc1ccccc1Cl | > 100 µM (inactive) |
| N#Cc1cccc(NS(=O)(=O)c2ccc3[nH]c(=O)oc3c2)c1 | > 100 µM (inactive) |
| N#Cc1ccc(NC(=O)CNS(=O)(=O)c2ccc3[nH]c(=O)oc3c2)cc1 | 1.6 µM and 4.7 µM |
| COc1cccc(CNC(=O)CNS(=O)(=O)c2ccc3[nH]c(=O)oc3c2)c1 | 1.8 µM and 0.73 µM |
| C/C(=N\NC(=O)c1cc(O)c(O)c(O)c1)c1ccc(O)cc1O | 0.777 µM |
| O=C(NN=Cc1ccccc1F)c1ccc(O)cc1 | > 100 µM (inactive) |
| O=C(CCCNS(=O)(=O)c1ccc2[nH]c(=O)oc2c1)NCc1ccccc1Cl | 1.6 µM and > 100 µM (inactive) |
| O=C(N/N=C/c1ccccc1F)c1ccccc1OCc1ccccc1 | > 100 µM (inactive) |
| O=C(N/N=C/c1ccc(Cl)c(Cl)c1)c1cc(O)c(O)c(O)c1 | 9.66 µM |
| O=c1[nH]c2ccc(S(=O)(=O)NCCc3ccc4c(c3)OCO4)cc2o1 | > 100 µM (inactive) |
| COc1ccc(C(=O)N/N=C/c2c(F)cccc2Cl)cc1OC | > 100 µM (inactive) |
